We go through 17 molecules from patent US20020103377A1, “Piperidinyloxy and pyrrolidinyloxy oxazolidinone antibacterials” (priority 1999, published 2002).

≈ marks a conversion by molar mass, not a printed value.

A word on the melting point: it is the temperature of the solid-liquid transition.

One data set concerns E. faecium OC3312. As to the kind of experiment: MIC by microdilution broth method (NCCLS), E. faecium OC3312. Format: cell-based. Conditions: Enterococcus faecium, OC3312, microdilution broth, cation adjusted Mueller-Hinton broth, 35° C., 16-20 hours; read-out: MIC (μg/mL) E. faecium OC3312. The method, then:
(§1) Minimal inhibitory concentration (MIC) has been an indicator of in vitro antibacterial activity widely used in the art. The in vitro antimicrobial activity of the compounds was determined by the microdilution broth method following the test method from the National Committee for Laboratory Standards (NCCLS). This method is described in the NCCLS Document M7-A4, Vol. 17, No.2, “Methods for Dilution Antimicrobial Susceptibility Test for Bacteria that Grow Aerobically-Fourth Edition”, which is incorporated herein by reference.
(§2) In this method two-fold serial dilutions of drug in cation adjusted Mueller-Hinton broth are added to wells in microdilution trays. The test organisms are prepared by adjusting the turbidity of actively growing broth cultures so that the final concentration of test organism after it is added to the wells is approximately 5×10^4 CFU/well.
(§3) Following inoculation of the microdilution trays, the trays are incubated at 35° C. for 16-20 hours and then read. […] The amount of growth in the wells containing the test compound is compared with the amount of growth in the growth-control wells (no test compound) used in each tray. As set forth in Table 1, compounds of the present invention were tested against a variety of Gram positive and Gram negative pathogenic bacteria resulting in a range of activities, from 1 to ≧128 μg/mL depending on the organism tested.
(In general: Broth dilution looks for growth in wells or tubes with falling amounts of substance.)

A further data set concerns S. aureus. Description: MIC by microdilution broth method (NCCLS), S. aureus Broth. The format is cell-based. The conditions noted are these: Staphylococcus aureus, cation adjusted Mueller-Hinton broth, 35° C., 16-20 hours, read-out: MIC (μg/mL) S. aureus Broth. The procedure: as §1, §2, §3
In the next data set the test system is MRSA OC 2878. As to the kind of experiment: MIC by microdilution broth method (NCCLS), MRSA OC 2878. Conditions: Staphylococcus aureus, MRSA, cation adjusted Mueller-Hinton broth, 35° C., 16-20 hours, read-out: MIC (μg/mL) MRSA OC 2878. Format: cell-based, Staphylococcus aureus. The procedure: as §1, §2, §3

Molecule `CC(=O)NC[C@H]1CN(c2ccc(OC3CCN(C(=O)CNS(C)(=O)=O)CC3)c(F)c2)C(=O)O1` [Compound 17, (S)-N-[[3-[3-Fluoro-4-{N-(α-methylsulfonylaminoacetyl)piperidinyl-4-oxy}phenyl]-2-oxo-5-oxazolidinyl]methyl]acetamide] displayed a melting point of 78 to 82 °C. For the same molecule, in the data set with E. faecium OC3312, the MIC amounted to 16 µg/mL (≈ 32.9 µM). Besides, in the data set on S. aureus, the MIC was determined as 8 µg/mL (≈ 16.4 µM). Further, in the data set on MRSA OC 2878, the MIC amounted to 16 µg/mL (≈ 32.9 µM).
Take `CC(=O)NC[C@H]1CN(c2ccc(OC3CCN(S(C)(=O)=O)CC3)c(F)c2)C(=O)O1` [Compound 6, (S)-N-[[3-[3-Fluoro-4-{N-(methanesulfonyl)piperidinyl-4-oxy}phenyl]-2-oxo-5-oxazolidinyl]methyl]acetamide]: the melting point fell in the range of 123 to 125 °C. Moreover, in the data set on E. faecium OC3312, the MIC came out at 8 µg/mL (≈ 18.6 µM). For the same molecule, the MIC with S. aureus was determined as 4 µg/mL (≈ 9.31 µM). In addition, the MIC with MRSA OC 2878 was 4 µg/mL (≈ 9.31 µM).
For the molecule `CC(=O)NC[C@H]1CN(c2ccc(OC3CN(C(=O)CO)C3)c(F)c2)C(=O)O1` [Compound 61, (S)-N-[[3-[3-Fluoro-4-{N-(α-hydroxyacetyl)azetidinyl-3-oxy}phenyl]-2-oxo-5-oxazolidinyl]methyl]acetamide], the melting point was in the range of 158 to 160 °C. Further, in the data set on E. faecium OC3312, the MIC was 128 µg/mL (≈ 336 µM). Besides, the MIC in the data set on S. aureus stood at 32 µg/mL (≈ 83.9 µM). Moreover, in the data set with MRSA OC 2878, the MIC was 64 µg/mL (≈ 168 µM).
In turn, `CC(=O)NC[C@H]1CN(c2ccc(OC3CCN(S(=O)(=O)N(C)C)CC3)c(F)c2)C(=O)O1` [Compound 23, (S)-N-[[3-[3-Fluoro-4-{N-(dimethylsulfamoyl)piperidinyl-4-oxy}phenyl]-2-oxo-5-oxazolidinyl]methyl]acetamide] had a melting point of 132 to 134 °C. The MIC in the data set with E. faecium OC3312 was 16 µg/mL (≈ 34.9 µM). Also, in the data set on S. aureus, the MIC stood at 16 µg/mL (≈ 34.9 µM). The MIC in the data set with MRSA OC 2878 amounted to 4 µg/mL (≈ 8.72 µM).
Molecule `CC(=O)NC[C@H]1CN(c2ccc(OC3CCN(C(=O)N(C)C)CC3)c(F)c2)C(=O)O1` [Compound 24, (S)-N-[[3-[3-Fluoro-4-{N-(dimethylcarbamoyl)piperidinyl-4-oxy}phenyl]-2-oxo-5-oxazolidinyl]methyl]acetamide] gave a melting point of 129 to 131 °C. The MIC in the data set on E. faecium OC3312 stood at 32 µg/mL (≈ 75.7 µM). The MIC in the data set with S. aureus came to 8 µg/mL (≈ 18.9 µM). Besides, the MIC in the data set on MRSA OC 2878 amounted to 16 µg/mL (≈ 37.9 µM).
On to `CC(=O)NC[C@H]1CN(c2ccc(OC3CCCN(c4ncccn4)C3)c(F)c2)C(=O)O1` (stereo partly drawn) [Compound 38, (S)-N-[[3-[3-Fluoro-4-{N-(2-pyrimidinyl)piperidinyl-3-oxy}phenyl]-2-oxo-5-oxazolidinyl]methyl]acetamide], for which the melting point fell in the range of 130 to 131 °C. Moreover, the MIC in the data set with E. faecium OC3312 was found to be 32 µg/mL (≈ 74.5 µM). The MIC in the data set with S. aureus turned out to be 16 µg/mL (≈ 37.3 µM). The MIC with MRSA OC 2878 is 8 µg/mL (≈ 18.6 µM).
For the molecule `CC(=O)NC[C@H]1CN(c2ccc(OC3CCN(C(=O)c4cccc(C#N)c4)CC3)c(F)c2)C(=O)O1` [Compound 12, (S)-N-[[3-[3-Fluoro-4-{N-(3-cyanobenzoyl)piperidinyl-4-oxy}phenyl]-2-oxo-5-oxazolidinyl]methyl]acetamide], the melting point lay within 82 to 85 °C. For the same molecule, the MIC in the data set with E. faecium OC3312 was found to be 16 µg/mL (≈ 33.3 µM). The MIC in the data set with S. aureus is 8 µg/mL (≈ 16.6 µM). In the data set on MRSA OC 2878, the MIC was found to be 8 µg/mL (≈ 16.6 µM).
For `CC(=O)NC[C@H]1CN(c2ccc(OC3CCN(C(=O)CO)C3)c(F)c2)C(=O)O1` (stereo partly drawn) [Compound 40, (S)-N-[[3-[3-Fluoro-4-{N-(α-hydroxyacetyl)pyrrolidinyl-3-oxy}phenyl]-2-oxo-5-oxazolidinyl]methyl]acetamide], the melting point was 97 to 99 °C. Besides, the MIC in the data set on E. faecium OC3312 is 16 µg/mL (≈ 40.5 µM). The MIC in the data set with S. aureus was 4 µg/mL (≈ 10.1 µM). In addition, the MIC in the data set with MRSA OC 2878 stood at 8 µg/mL (≈ 20.2 µM).
Take `CC(=O)NC[C@H]1CN(c2ccc(OC3CN(C(=O)COC(C)=O)C3)c(F)c2)C(=O)O1` [Compound 59, (S)-N-[[3-[3-Fluoro-4-{N-(acetoxyacetyl)azetidinyl-3-oxy}phenyl]-2-oxo-5-oxazolidinyl]methyl]acetamide]: the melting point lay in the range of 172 to 175 °C. For the same molecule, the MIC in the data set with E. faecium OC3312 amounted to 16 µg/mL (≈ 37.8 µM). Moreover, the MIC in the data set on S. aureus is 4 µg/mL (≈ 9.45 µM). Moreover, the MIC with MRSA OC 2878 was 8 µg/mL (≈ 18.9 µM).
Molecule `CC(=O)NC[C@H]1CN(c2ccc(OC3CCN(C(=O)CN)CC3)c(F)c2)C(=O)O1` [Compound 16] returned a melting point of 142 to 146 °C. In the data set with E. faecium OC3312, the MIC was found to be 32 µg/mL (≈ 78.3 µM). Moreover, the MIC in the data set on S. aureus turned out to be 32 µg/mL (≈ 78.3 µM). The MIC with MRSA OC 2878 is 32 µg/mL (≈ 78.3 µM).
In turn, `CC(=O)NC[C@H]1CN(c2ccc(OC3CCN(C(=O)COC(C)=O)CC3)c(F)c2)C(=O)O1` [Compound 53, (S)-N-[[3-[3-Fluoro-4-{N-(acetoxyacetyl)piperidinyl-4-oxy}phenyl]-2-oxo-5-oxazolidinyl]methyl]acetamide] registered a melting point of 146 to 147.5 °C. In addition, the MIC with E. faecium OC3312 amounted to 16 µg/mL (≈ 35.4 µM). Also, the MIC in the data set on S. aureus is 8 µg/mL (≈ 17.7 µM). In addition, the MIC in the data set with MRSA OC 2878 stood at 8 µg/mL (≈ 17.7 µM).
Take `CC(=O)NC[C@H]1CN(c2ccc(OC3CCN(C(=O)c4cccnc4)CC3)c(F)c2)C(=O)O1` [Compound 19, (S)-N-[[3-[3-Fluoro-4-{N-(3-pyridoyl)piperidinyl-4-oxy}phenyl]-2-oxo-5-oxazolidinyl]methyl]acetamide]: the melting point lay in the range of 49 to 53 °C. Further, in the data set on E. faecium OC3312, the MIC came to 32 µg/mL (≈ 70.1 µM). The MIC with S. aureus turned out to be 16 µg/mL (≈ 35.1 µM). The MIC in the data set on MRSA OC 2878 came to 32 µg/mL (≈ 70.1 µM).
`CC(=O)NC[C@H]1CN(c2ccc(OC3CCN(C(=O)c4ccccc4)CC3)nc2)C(=O)O1` [Compound 46, (5S)-3-[6-{N-(Benzoyl)piperidinyl-4-oxy}-pyridin-3-yl]-5-methylacetamide-oxazolidin-2-one] yielded a melting point of 180 to 182 °C. In addition, in the data set with E. faecium OC3312, the MIC is over 128 µg/mL. In addition, in the data set on S. aureus, the MIC was 64 µg/mL (≈ 146 µM). In addition, the MIC in the data set with MRSA OC 2878 was 64 µg/mL (≈ 146 µM).
As to `CC(=O)NCC(=O)N1CCC(Oc2ccc(N3C[C@H](CNC(C)=O)OC3=O)cc2F)CC1` [Compound 18, (S)-N-[[3-[3-Fluoro-4-{N-(α-N-acetylaminoacetyl)piperidinyl-4-oxy}phenyl]-2-oxo-5-oxazolidinyl]methyl]acetamide], the melting point fell in the range of 66 to 68 °C. For the same molecule, the MIC with E. faecium OC3312 was 64 µg/mL (≈ 142 µM). Further, the MIC with S. aureus was 8 µg/mL (≈ 17.8 µM). For the same molecule, the MIC in the data set with MRSA OC 2878 is 16 µg/mL (≈ 35.5 µM).
For `CC(=O)NC[C@H]1CN(c2ccc(OC3CCN(C(=O)c4cccc(F)c4)CC3)nc2)C(=O)O1` [Compound 47, (5S)-3-[6-{N-(3-Fluorobenzoyl)piperidinyl-4-oxy}-pyridin-3-yl]-5-methylacetamide-oxazolidin-2-one], the figures for the MIC with E. faecium OC3312, in the data set with S. aureus and in the data set with MRSA OC 2878 were over 128 µg/mL, 64 µg/mL (≈ 140 µM) and 64 µg/mL (≈ 140 µM), respectively.
In the case of `CC(=O)OCC(=O)N1CC(Oc2ccc(N3C[C@H](CN(C(C)=O)C(=O)COC(C)=O)OC3=O)cc2F)C1` [Compound 60, (S)-N-[[3-[3-Fluoro-4-{N-(acetoxyacetyl)azetidinyl-3-oxy}phenyl]-2-oxo-5-oxazolidinyl]methyl]-N-[α-acetoxyacetyl]acetamide], the results for the MIC in the data set on E. faecium OC3312, with S. aureus and in the data set on MRSA OC 2878 were over 128 µg/mL, 8 µg/mL (≈ 15.3 µM) and 16 µg/mL (≈ 30.6 µM), respectively.
The corresponding values for `CC(=O)NC[C@H]1CN(c2ccc(OC3CCN(C(=O)c4ccno4)CC3)c(F)c2)C(=O)O1` [Compound 52, (S)-N-[[3-[3-Fluoro-4-{N-(5-isoxazolylcarbonyl)piperdinyl-4-oxy}phenyl]-2-oxo-5-oxazolidinyl]methyl]acetamide] are 4 µg/mL (≈ 8.96 µM), 8 µg/mL (≈ 17.9 µM) and 8 µg/mL (≈ 17.9 µM).
